Data taken from patent publication US10300143B2, “Compositions for treating cancer and methods for making the same” (THE BRIGHAM AND WOMEN'S HOSPITAL, INC., priority 2012, dated 2019).
“Also recorded” adds a separate entry of the source.

Assays:
[1] = Insulin tolerance test using PI103-SNPs; format: in vivo, mice (murine 4T1 breast cancer model); settings: 5 mg/kg single dose, insulin 0.75 U/kg 1 hour later, glucose 45 min after insulin
Method: Random fed mice (murine 4T1 breast cancer model) were injected with a single dose of Empty nanoparticles (Control), Free PI-103 (5 mg/kg) and PI103-SNPs via tail vain injections. Freshly prepared Insulin solution (0.75 U/Kg) in 0.1 ml 0.9% NaCl was injected intraperitoneally to mice 1 hour after the drug administration. The blood glucose levels were measured before and 45 min after the insulin injections using glucometer.

[2] = system: phosphorylation of Akt in 4T1 cells; assay: Western blot assay of phospho AKT in cells; format: cell-based, murine
Method: The protein was collected and protein lysates were electrophoresed. Then membranes were incubated with Phospho AKT, total AKT and actin antibodies overnight at 4° C. After appropriate amount of washing with TBST, membranes were incubated with horseradish peroxidase-conjugated secondary antibody for 1 hour. Detection was done using G-box (Syngene) and densitometric quantification was done by image J software. […] When cells were 70% confluent, they were incubated in serum free media for 6 hours. Then, free drug or equivalent amount of drug loaded nanoparticles were added in appropriate concentration in serum deprived media (1% FBS). […] Amount of protein was measured by […] and equal amount of protein lysates were electrophoresed on a 4-20% polyacrylamide gel, transferred to polyvinylidene difluoride membrane, and blocked in TBST-T with 5% dry milk. Then membranes were incubated in TBST with Phospho AKT (S473) (1:500 dilution), total AKT (1:1000 dilution), and actin (1:2000 dilution) antibodies (all antibodies from Cell Signalling Technology) overnight at 4° C. After appropriate amount of washing with TBST, membranes were incubated with horseradish peroxidase-conjugated secondary antibody for 1 hour. Detection was done using G-Box™ from Syngene and densitometric quantification was done by image J™ software.

[3] = system: 4T1 murine breast cancer cell line; assay: Cell viability (MTS) assay; format: cell-based; settings: Mus musculus
Method: (§1) 4T1 and MDA MB 468 breast cancer cells were cultured in RPMI, 4306 ovarian cancer cells were cultured in DMEM, supplemented with 10% FBS and 1% of Antibiotic-Antimycotic 100× solution. 4×10^3 Cells were seeded into 96-well flat-bottomed plates. Free drug or drug loaded nanoparticles (normalized to equivalent amounts of free drug) were added in triplicate in each 96-well plate and then plates were incubated in 5% CO^2 atmosphere at 37° C. After desired time period of incubation, cells were washed and incubated with 100 μL phenol-red free medium (without FBS) containing 20 μl of the CellTiter 96 Aqueous One Solution reagents (PROMEGA, WI). After 2 hours incubation, the absorbance in each well was recorded.
(§2) 4T1 and MDA MB 468 breast cancer cells were cultured in RPMI, 4306 ovarian cancer cells were cultured in DMEM, supplemented with 10% FBS and 1% of Antibiotic-Antimycotic 100× solution (Invitrogen, 15240-062). 4×10^3 Cells were seeded into 96-well flat-bottomed plates. Free drug or drug loaded nanoparticles (normalized to equivalent amounts of free drug) was added in triplicate in each 96-well plate at appropriate concentrations (1, 10, 100 nM and 1, 10, and […]) and then plates were incubated in 5% CO2 atmosphere at 37° C. After desired time period of incubation, cells were washed and incubated with […] phenol-red free medium (without FBS) containing […] of the CellTiter 96 Aqueous One Solution reagents (Promega, WI). After 2 hours incubation in a 5% CO2 atmosphere at 37° C., the absorbance in each well was recorded at 490 nm using an Epoch plate reader (Biotek instruments, VT). The absorbance reflects the number of surviving cells. Blanks were subtracted from all data and results analyzed using GraphPad Prism™ software (GraphPad, San Diego, Calif.). Each experiment was independently repeated thrice and data shown is mean±SE of n=3.

[4] = system: PI3K-overexpressing 4306 ovarian cancer cell line; assay: Cell viability (MTS) assay; format: cell-based
Method: as §1, §2

[5] = system: MDA-MB-468 human breast cancer cell line; assay: Cell viability (MTS) assay; format: cell-based
Method: as §1, §2

[6] = system: PI3K; settings: cited from earlier work
[7] = system: K-Ras^LSL/+/Pten^fl/fl ovarian cancer; assay: Efficacy study of PI103-SNPs in murine ovarian cancer tumor model; format: in vivo, mice; settings: after 3 doses, 5 mg/kg
Method: Ovarian adenocarcinomas were induced in genetically engineered K-Ras^LSL/+/Pten^fl/fl mice via intrabursal delivery of adenovirus-carrying Cre recombinase. Tumor cells were also engineered to express luciferase once activated by Adeno-Cre to make tumor imaging possible before and after drug treatment. Once mice developed medium to large tumors, they were placed into one of four treatment groups (vehicle, Free-PI-103 5 mg/kg, PI-103-SNP 5 mg/kg, and iRGD-PI103-SNP 5 mg/kg) and all drugs were administered via tail vein injection. Tumor imaging in vivo was performed using an 1VIS Lumina II Imaging System. Quantification of bioluminescence was achieved by using Living Image Software 3.1 (Caliper Life Sciences). Images were taken a day prior to initial treatment (day 0, baseline image), after 3 treatments, and 1 d after 5 treatments.
Ovarian adenocarcinomas were induced in genetically engineered K-ras isu+/Pten mice via intrabursal delivery of adenovirus-carrying Cre recombinase. Tumor cells were also engineered to express luciferase once activated by Adeno-Cre to make tumor imaging possible before and after drug treatment. […] Quantification of bioluminescence was achieved by using Living Image Software 3.1™ (Caliper Life Sciences). […]

[8] = cited from earlier work

IC50 ([3]; 48 hours): 122 ± 3.15 nM | IC50 ([3]; 72 hours): 67.3 ± 3.4 nM | IC50 ([4]; 48 hours): 286 ± 45 nM | IC50 ([4]; 72 hours): 392 ± 49.3 nM | IC50 ([5]; 48 hours): 445 ± 67 nM | IC50 ([5]; 72 hours): 312 ± 49 nM
SMILES: Oc1cccc(-c2nc(N3CCOCC3)c3oc4ncccc4c3n2)c1 [PI103]
blood glucose level after insulin injection [1]: only a minor decrease in blood glucose level | phosphorylation of AKT after transient exposure ([2]; 4 hours exposure, wash, followed to 48 hours): rebound increase in phosphorylation of AKT | basal phosphorylation of Akt ([2]; equimolar PI103 (5 pM), continuous incubation, 48 hours): inhibited basal phosphorylation of Akt even at 48 hours of continuous incubation | PI3K inhibitory potency [6]: excellent potency in the low nanomolar range; also recorded: more potent | tumor luciferase bioluminescence [7]: significant tumor regression as compared to vehicle control | aqueous solubility [8]: limited aqueous solubility
